{
  "source": "patent US10617695B2",
  "about": "“Ophthalmic compositions containing alcaftadine” (Vistakon Pharmaceuticals, LLC, priority 2006, dated 2020)",
  "key": {"[1]": {"system": "murine model of allergic conjunctivitis", "assay": "Eosinophil and neutrophil recruitment 24 hours post-CAC in murine model of allergic conjunctivitis, late phase", "type": "in vivo, mice", "settings": "alcaftadine 2.5 mg/ml, 5 μL topical at 1 and 2 hours pre-challenge", "experimental": "Alcaftadine ophthalmic solution was evaluated to determine if topical treatment could reduce early phase and late phase allergic inflammation in a murine model of allergic conjunctivitis. Evans Blue Dye Leakage was used to assess the impact on vascular permeability during the early phase inflammatory response Conjunctiva was taken at 24 hours, stained, and assessed for presence of neutrophil and eosinophil infiltration to evaluate late phase anti-inflammatory activity.\nAll mice were sensitized with short ragweed (SRW) in aluminum hydroxide via intraperitoneal administration (Day 0, 7, and 14) and eye drop instillation (Day 8 and 15). On Day 20, mice were again sensitized with eye drops of SRW.\nOn Day 27, two topical administrations of the clinical dose of alcaftadine 2.5 mg/ml or vehicle were instilled at 1 and 2 hours pre-challenge. Alcaftadine and vehicle were administered topically at a 5 μL saturating dose as treatment arms based on a randomization code. […]\nVascular leak was determined by means of Evans Blue Dye Extravasation following allergen challenge for N=6 animals except the alcaftadine treatment arm, where N=4 animals were sacrificed and tested (two animals died during the procedure). […] The numbers of eosinophils and neutrophils were determined both by light microscopy of Giemsa or H&E stained sections or by immunohistochemistry using cell specific monoclonal antibodies. […]"}, "[2]": {"system": "ZO-1", "assay": "Integrity of conjunctival epithelium after conjunctival allergen challenge: ZO-1 expression (confocal microscopy)", "type": "in vivo, mice", "experimental": "To investigate the ability of alcaftadine to maintain the integrity of conjunctival epithelium, changes in the expression of the tight junction proteins ZO-1 and E-cadherin (an induction for E-cadherin and qualitative change-from focal to diffuse for ZO-1) were evaluated following specific conjunctival allergen challenge. These changes are associated with an increased permeability of the conjunctival and other epithelial tissues. This in vivo experiment examined what effect alcaftadine (topical administration 1 and 2 hours pre-challenge) had on the modulation of these proteins.\nMice were sensitized with short ragweed (SRW) in aluminum hydroxide via intraperitoneal administration (Day 0, 7, and 15) and eye drop instillation (Day 8 and 15). On Day 20, mice were further sensitized with eye drops containing only SRW. On Day 27, the mice were treated topically with either 5 μL alcaftadine or vehicle at 1 and 2 hours prior to challenge. SRW was instilled topically to both eyes. The expression of these proteins in naive eyes were also monitored. Changes in the expression of the tight junction proteins ZO-1 and E-cadherin were observed 1-hour post conjunctival allergen challenge with SRW. The proteins were detected using FITC-conjugated monoclonal antibodies specific for ZO-1 and E-cadherin and were visualized by confocal microscopy (Ziess). […]"}, "[3]": {"assay": "Chemical stability of alcaftadine solution in ethylene oxide sterilized LDPE bottles", "type": "physicochemical", "experimental": "Both non-sterilized Rexam and Bunder Glas bottles were sterilized using ethylene oxide. Stability studies were initiated and ethylene oxide levels determined to be <1 ppm (under ambient conditions) using a water extraction test method (ANSI/AAMI/ISO: 10993-7) by AppTec (Marietta, Ga.).\nThe 2.5 mg/ml alcaftadine solution was used in this study.\nThe chemical stability results for alcaftadine stored in ethylene oxide sterilized Rexam and Bunder Glas bottles are summarized in Table 4."}, "[4]": {"assay": "Chemical stability of alcaftadine solution in non-sterilized or gamma irradiated LDPE bottles and glass vials (HPLC)", "type": "physicochemical", "description": "The existence of the N-oxide structures as the primary oxidative degradation peak was confirmed as having the same HPLC relative retention time as a synthetically produced N-oxide structures and also confirmed using mass spectroscopy.\nTo investigate the effects of the gamma irradiation process used to sterilize the LDPE bottles, the chemical stability of alcaftadine was studied using different lots of bottles, either gamma irradiated or non-sterilized.\nThe following materials were used in this study.\n2.5 mg/ml alfactadine solution\nNon-sterilized 5 ml LDPE bottles (DUPONT 20-6064) from Bunder Glas GmbH (Germany)\nNon-sterilized 5 ml LDPE bottles (DUPONT 20-6064) from Rexam (France)\nSterilized (gamma irradiated at 25 kGy) LDPE bottles (DUPONT 20-6064) from Bunder Glas GmbH\nScintillation vials—20 ml clear glass with Teflon coated cap Millex GV syringe filter unit\nChemical stability results for alcaftadine solution stored in either non-sterilized bottles (Rexam or Bunder Glas) or gamma-irradiated bottles (Bunder Glas) are summarized in Table 2. All samples were assayed by HPLC after 6 and 14 days of storage at 50° C. Light exposure was not controlled during storage. The solution was stored in either Rexam bottles (without sterilization), Bunder Glas bottles (sterilized with y Irradiation or without sterilization) and in glass vials."}, "[5]": {"assay": "Chemical stability of alcaftadine solution in non-sterilized or gamma irradiated LDPE bottles and glass vials (HPLC)", "type": "physicochemical", "settings": "Glass Vials; 5° C.; 6 days"}, "[6]": {"settings": "Bunder Glas bottles, Ethylene Oxide, 5 days at 50° C."}, "[7]": {"settings": "Bunder Glas bottles, Ethylene Oxide, 14 days at 50° C."}, "[8]": {"settings": "Rexam bottles, Ethylene Oxide, 5 days at 50° C."}, "[9]": {"settings": "Rexam bottles, Ethylene Oxide, 14 days at 50° C."}, "[10]": {"settings": "Bunder Glas bottles, Y Irradiation (gamma, 25 kGy), 50° C., 6 days"}, "[11]": {"settings": "Bunder Glas bottles, Y Irradiation (gamma, 25 kGy), 50° C., 14 days"}, "[12]": {"settings": "Bunder Glas bottles, no sterilization, 50° C., 6 days"}, "[13]": {"settings": "Bunder Glas bottles, no sterilization, 50° C., 14 days"}, "[14]": {"settings": "Rexam bottles, no sterilization, 50° C., 6 days"}, "[15]": {"settings": "Rexam bottles, no sterilization, 50° C., 14 days"}},
  "note": "Marks after values point to notes of the source that are not given here.",
  "data": [
    {"smiles": "CN1CCC(=C2c3ccccc3CCn3c(C=O)cnc32)CC1", "note": "[Alcaftadine, 6,11-dihydro-11-(1-methyl-4-piperidinylidene)-5H-imidazo[2,1-b][3]benzazepine-3-carboxaldehyde]", "values": [
      {"measurement": "eosinophil or neutrophil recruitment in the late phase response", "setting": "[1]", "result": "did not prevent eosinophil or neutrophil recruitment"},
      {"measurement": "eosinophil or neutrophil recruitment in the late phase response", "setting": "[1]; listed as alcaftadine", "result": "does not appear to inhibit eosinophil or neutrophil recruitment"},
      {"measurement": "ZO-1 staining, alcaftadine treatment versus naive (negative control)", "setting": "[2]; 5 μL topical at 1 and 2 hours prior to challenge, 1-hour post challenge", "result": "no or minimal difference"},
      {"measurement": "integrity of conjunctival epithelial tight junctions (focal ZO-1 expression)", "setting": "[2]; following specific conjunctival allergen challenge", "result": "maintains the integrity of conjunctival epithelial tight junctions"},
      {"measurement": "N-oxide levels in ethylene oxide sterilized Bunder Glas bottles versus gamma irradiated bottles", "setting": "[3]; 14 days of storage at 50° C. under ambient light conditions", "result": "significantly lower N-oxide levels"},
      {"measurement": "Alcaftadine", "setting": "[3]; [6]", "result": 2.46, "unit": "mg/mL"},
      {"measurement": "N-Oxide", "setting": "[3]; [6]", "result": 0.052, "unit": "%"},
      {"measurement": "Alcaftadine", "setting": "[3]; [7]", "result": 2.48, "unit": "mg/mL"},
      {"measurement": "N-Oxide", "setting": "[3]; [7]", "result": 0.074, "unit": "%"},
      {"measurement": "Alcaftadine", "setting": "[3]; Glass Vials, 5 days at 50° C.", "result": 2.48, "unit": "mg/mL"},
      {"measurement": "N-Oxide", "setting": "[3]; Glass Vials, 5 days at 50° C.", "result": 0.022, "unit": "%"},
      {"measurement": "Alcaftadine", "setting": "[3]; Glass Vials, 14 days at 50° C.", "result": 2.51, "unit": "mg/mL"},
      {"measurement": "N-Oxide", "setting": "[3]; Glass Vials, 14 days at 50° C.", "result": 0.028, "unit": "%"},
      {"measurement": "Alcaftadine", "setting": "[3]; [8]", "result": 2.50, "unit": "mg/mL"},
      {"measurement": "N-Oxide", "setting": "[3]; [8]", "result": 0.018, "unit": "%"},
      {"measurement": "Alcaftadine", "setting": "[3]; [9]", "result": 2.58, "unit": "mg/mL"},
      {"measurement": "N-Oxide", "setting": "[3]; [9]", "result": 0.025, "unit": "%"},
      {"measurement": "N-oxide formation in gamma irradiated Bunder Glas bottles compared with glass vials and non-sterilized Rexam and Bunder Glas bottles", "setting": "[4]; 50° C.", "result": "significantly increased levels of N-oxide formation"},
      {"measurement": "Alcaftadine", "setting": "[4]; [10]", "result": 2.41, "unit": "mg/mL"},
      {"measurement": "Oxide", "setting": "[4]; [10]", "result": 0.199, "unit": "%"},
      {"measurement": "Alcaftadine", "setting": "[4]; [11]", "result": 2.39, "unit": "mg/mL"},
      {"measurement": "Oxide", "setting": "[4]; [11]", "result": 0.202, "unit": "%"},
      {"measurement": "Alcaftadine", "setting": "[4]; [12]", "result": 2.48, "unit": "mg/mL"},
      {"measurement": "Oxide", "setting": "[4]; [12]", "result": 0.018, "unit": "%"},
      {"measurement": "Alcaftadine", "setting": "[4]; [13]", "result": 2.48, "unit": "mg/mL"},
      {"measurement": "Oxide", "setting": "[4]; [13]", "result": 0.042, "unit": "%"},
      {"measurement": "Oxide", "setting": "[4]; Glass Vials, 50° C., 6 days", "result": 0.024, "unit": "%"},
      {"measurement": "Alcaftadine", "setting": "[4]; Glass Vials, 50° C., 6 days, sample showed significant evaporation", "result": "2.57* mg/mL"},
      {"measurement": "Alcaftadine", "setting": "[4]; Initial Solution", "result": 2.47, "unit": "mg/mL"},
      {"measurement": "Oxide", "setting": "[4]; Initial Solution", "result": 0.02, "unit": "%"},
      {"measurement": "Alcaftadine", "setting": "[4]; [14]", "result": 2.46, "unit": "mg/mL"},
      {"measurement": "Oxide", "setting": "[4]; [14]", "result": 0.015, "unit": "%"},
      {"measurement": "Alcaftadine", "setting": "[4]; [15]", "result": 2.48, "unit": "mg/mL"},
      {"measurement": "Oxide", "setting": "[4]; [15]", "result": 0.033, "unit": "%"},
      {"measurement": "susceptibility to oxidation", "setting": "[4]; primary degradation product N-oxide", "result": "susceptible to oxidation"},
      {"measurement": "Alcaftadine", "setting": "[5]", "result": 2.52, "unit": "mg/mL"},
      {"measurement": "Oxide", "setting": "[5]", "result": 0.008, "unit": "%"}
    ]}
  ]
}
